This note sets out measurements from ChEMBL document CHEMBL3244188, “Antagonists of slow reacting substance of anaphylaxis. Synthesis of a series of chromone-2-carboxylic acids” (J Med Chem, 1977).

The subject of this assay is Ileum. The assay is described as follows: Antagonism of slow reacting substance of anaphylaxis-induced contraction in guinea pig ileum treated 30 secs before SRS-A challenge. In kind it is functional, tissue-based. The following applies: Cavia porcellus.
`C=CCc1ccccc1OCC(O)COc1ccc2c(=O)cc(C(=O)[O-])oc2c1.[Na+]` (stereo not drawn): the IC50 (as a rule, the point on the concentration scale where inhibition reaches its midpoint) came to 1.8 µg/mL.

Regarding `O=C([O-])c1cc(=O)c2c(OCCCCCCCOc3ccccc3)cccc2o1.[Na+]`, the IC50 is 0.8 µg/mL. As for `O=C([O-])c1cc(=O)c2c(OCCCCCCCCCOc3ccccc3)cccc2o1.[Na+]`, the figure is 6 µg/mL; as for `O=C([O-])c1cc(=O)c2c(OCCOc3ccccc3)cccc2o1.[Na+]`, 100 µg/mL; as for `O=C([O-])c1cc(=O)c2c(OCCCOc3ccccc3)cccc2o1.[Na+]`, 35 µg/mL.

Consider `O=C([O-])c1cc(=O)c2c(OCCCCCOc3ccccc3)cccc2o1.[Na+]`, for which the IC50 came out at 17.5 µg/mL.

The compound `O=C([O-])c1cc(=O)c2cc(OCCCOc3ccccc3)ccc2o1.[Na+]` showed an IC50 of 3.3 µg/mL. `O=C([O-])c1cc(=O)c2cc(OCCCCCOc3ccccc3)ccc2o1.[Na+]`: the IC50 came to 3.3 µg/mL. For `O=C([O-])c1cc(=O)c2cc(Cc3ccccc3)ccc2o1.[Na+]`, it took 6.6 µg/mL to reach half-maximal inhibition (IC50).

The compound `O=C([O-])c1cc(=O)c2cc(CCCc3ccccc3)ccc2o1.[Na+]` registered an IC50 of 3 µg/mL.

In turn, `O=C([O-])c1cc(=O)c2cc(CCCCCc3ccccc3)ccc2o1.[Na+]` showed an IC50 of 4.5 µg/mL. As for `O=C([O-])c1cc(=O)c2ccc(OCCOc3ccccc3)cc2o1.[Na+]`, the figure is 15 µg/mL; as for `O=C([O-])c1cc(=O)c2ccc(OCCCOc3ccccc3)cc2o1.[Na+]`, 1.4 µg/mL. As for `O=C([O-])c1cc(=O)c2ccc(OCCCCCOc3ccccc3)cc2o1.[Na+]`, the figure is 0.4 µg/mL; as for `O=C([O-])c1cc(=O)c2ccc(OCCCCCCCOc3ccccc3)cc2o1.[Na+]`, 1.8 µg/mL. As for `O=C([O-])c1cc(=O)c2ccc(OCCCCCCCCCOc3ccccc3)cc2o1.[Na+]`, the figure is 1.8 µg/mL. As to `O=C([O-])c1cc(=O)c2ccc(OCCCCCSc3ccccc3)cc2o1.[Na+]`, the IC50 amounted to 0.4 µg/mL. As for `O=C([O-])c1cc(=O)c2ccc(SCCCCCOc3ccccc3)cc2o1.[Na+]`, the figure is 0.3 µg/mL. `O=C([O-])c1cc(=O)c2ccc(OCCCCCc3ccccc3)cc2o1.[Na+]` gave an IC50 of 0.6 µg/mL.

On to `O=C([O-])c1cc(=O)c2cccc(OCCCOc3ccccc3)c2o1.[Na+]`, for which the IC50 is 50 µg/mL. As for `O=C([O-])c1cc(=O)c2cccc(OCCCCCOc3ccccc3)c2o1.[Na+]`, the figure is 9 µg/mL; as for `C=CCc1ccc(OCCCCCOc2ccc3c(=O)cc(C(=O)[O-])oc3c2)c(C(C)=O)c1O.[Na+]`, 0.9 µg/mL. As for `O=C([O-])c1cc(=O)c2ccc(OCCCCCOc3cccc(O)c3)cc2o1.[Na+]`, the figure is 1.5 µg/mL; as for `O=C([O-])c1cc(=O)c2ccc(OCCCCCOc3cccc(OCc4ccccc4)c3)cc2o1.[Na+]`, 1 µg/mL; as for `COc1cccc(OCCCCCOc2ccc3c(=O)cc(C(=O)[O-])oc3c2)c1.[Na+]`, 1.5 µg/mL. As for `CC(=O)c1ccc(OCCCCCOc2ccc3c(=O)cc(C(=O)[O-])oc3c2)cc1.[Na+]`, the figure is 3.5 µg/mL.

Turning to `C=CCc1c(OCCCCCOc2ccc(C(=O)CN)cc2)ccc2c(=O)cc(C(=O)[O-])oc12.[Na+]`, the IC50 worked out at 3.9 µg/mL. As for `C=CCc1c(OCCCCCOc2cccc(O)c2C(C)=O)ccc2c(=O)cc(C(=O)[O-])oc12.[Na+]`, the figure is 0.05 µg/mL; as for `C=CCc1c(OCCCCCOc2ccc(C(C)=O)cc2)ccc2c(=O)cc(C(=O)[O-])oc12.[Na+]`, 2.4 µg/mL. As for `C=CCc1c(OCCCCCOc2ccc3c(=O)cc(C(=O)[O-])oc3c2CC=C)ccc(C(C)=O)c1O.[Na+]`, the figure is 1.23 µg/mL; as for `CC(=O)c1ccc(OCCCCCOc2ccc3c(=O)cc(C(=O)[O-])oc3c2)cc1O.[Na+]`, 6.8 µg/mL; as for `CCCc1ccccc1OCCCOc1ccc2c(=O)cc(C(=O)[O-])oc2c1CCC.[Na+]`, 0.18 µg/mL.

Regarding `CCCc1ccccc1OCCCOc1cc2oc(C(=O)[O-])cc(=O)c2cc1CCC.[Na+]`, it took 18 µg/mL to reach half-maximal inhibition (IC50). In turn, `CCCc1c(OCCCOc2ccc3c(=O)cc(C(=O)[O-])oc3c2CCC)ccc(C(C)=O)c1O.[Na+]` came in with an IC50 of 0.001 µg/mL. As for `O=C([O-])c1cc(=O)c2ccc(OCC(O)COc3ccccc3)cc2o1.[Na+]` (stereo not drawn), the figure is 7 µg/mL. As for `CC(=O)c1ccc(OCC(O)COc2ccc3c(=O)cc(C(=O)[O-])oc3c2)cc1O.[Na+]` (stereo not drawn), the figure is 28 µg/mL.

`C=CCc1c(OCC(O)COc2ccc3c(=O)cc(C(=O)[O-])oc3c2)ccc(C(C)=O)c1O.[Na+]` (stereo not drawn) gave an IC50 of 0.1 µg/mL.

For `C=CCc1c(OCC(O)COc2ccc(C(C)=O)c(O)c2)ccc2c(=O)cc(C(=O)[O-])oc12.[Na+]` (stereo not drawn), the IC50 was determined as 3.3 µg/mL. As for `C=CCc1c(OCC(O)COc2ccc3c(=O)cc(C(=O)[O-])oc3c2CC=C)ccc(C(C)=O)c1O.[Na+]` (stereo not drawn), the figure is 0.05 µg/mL; as for `CCCc1c(OCC(O)COc2ccc3c(=O)cc(C(=O)[O-])oc3c2)ccc(C(C)=O)c1O.[Na+]` (stereo not drawn), 0.08 µg/mL.

On to `CCCc1ccccc1OCC(O)COc1ccc2c(=O)cc(C(=O)[O-])oc2c1.[Na+]` (stereo not drawn), for which the IC50 is 2 µg/mL. As for `CCCc1ccccc1OCC(O)COc1ccc2c(=O)cc(C(=O)[O-])oc2c1CCC.[Na+]` (stereo not drawn), the figure is 0.044 µg/mL; as for `CCCc1ccccc1OCC(O)COc1cc2oc(C(=O)[O-])cc(=O)c2cc1CCC.[Na+]` (stereo not drawn), 1.6 µg/mL; as for `CCCc1c(OCC(O)COc2ccc3c(=O)cc(C(=O)[O-])oc3c2CCC)ccc(C(C)=O)c1OC.[Na+]` (stereo not drawn), 45 µg/mL. Turning to `CCCc1cc(C(C)=O)ccc1OCC(O)COc1ccc2c(=O)cc(C(=O)[O-])oc2c1CCC.[Na+]` (stereo not drawn), half-maximal inhibition (IC50) was put at 0.15 µg/mL. As for `CCCc1c(OCc2ccccc2)cccc1OCC(O)COc1ccc2c(=O)cc(C(=O)[O-])oc2c1CCC.[Na+]` (stereo not drawn), the figure is 1 µg/mL; as for `CCCc1c(OCC(O)COc2cccc(O)c2C(C)=O)ccc2c(=O)cc(C(=O)[O-])oc12.[Na+]` (stereo not drawn), 0.3 µg/mL.

In the case of `CCCc1c(OCC(O)COc2ccc3c(=O)cc(C(=O)[O-])oc3c2CCC)ccc(C(C)=O)c1O.[Na+]` (stereo not drawn) [FPL-55712 SODIUM SALT], half-maximal inhibition (IC50) was put at 0.005 µg/mL.
